Results taken from US20250243160A1, “INDOLE DERIVATIVES FOR TARGETING AUTOPHAGY” (Automera PTE. LTD, priority 2024, published 2025).

Experiments:
[1] = target: T1, p62 oligomers (Homo sapiens, UniProt Q13501); assay: p62 oligomerization assay by Western blot in HeLa cells; type: cell-based; conditions: 24 hours treatment, relative to vehicle control (DMSO)
T1 construct: endogenous in cells; host or cells: HeLa
Procedure: (§1) HeLa cells were seeded in 6-well plates (700,000 cells) and allowed to adhere overnight. Media was replaced one hour before administering either vehicle (DMSO) or test compounds. After 24 hours of treatment, the media was discarded, and cells were rinsed once with ice-cold 1×PBS before detached from plates with ice-cold RIPA Lysis and Extraction Buffer (Thermo Fisher Scientific) which was supplemented with protease and phosphatase inhibitors. The resulting cell suspensions were transferred to pre-chilled microcentrifuge tubes, incubated on ice for 20 min with intermittent mixing and then centrifuged at 12,000 rpm for 20 min at 4° C. The supernatants were then aspirated slowly and transferred into new tubes kept on ice. The protein concentration in the samples was determined using BCA kit (Thermo Fisher Scientific) as per manufacturer's instructions.
(§2) For the p62 oligomerization and LC3 lipidation assays, cell lysates were prepared using RIPA buffer supplemented with 2% SDS and benzonase (Sigma). The lysates were then combined with 4× Laemmli protein sample buffer (Bio-Rad), heated at 70° C. for 10 min and subjected to a brief centrifugation of 10-15 seconds.
(§3) For p62 oligomerization and LC3 lipidation assays, lysates containing 30 μg of protein and for BRD4 and FKBP12(F36V) degradation assays, lysates containing 20 μg of protein, were loaded slowly into the wells of 4-20% gradient Tris-glycine gels (Bio-Rad). The gels were run at 100V until completion and transferred onto PVDF membranes. Membranes were blocked using 5% milk in TBS-Tween (0.1%) buffer at room temperature for 1 hour. The membranes were incubated with primary antibody in 5% milk-TBST with shaking, overnight at 4° C. The primary antibodies used were: p62 (Novus Biologicals 2C11, H00008878-MO1), LC3A/B (Cell Signalling Technology D3U4C, 12741S), FKBP12 (Abcam ab24373), BRD4 (Cell Signalling Technology E2A7X, 13440S), GAPDH (Cell Signalling Technology D4C6R, 97166S), and β-Actin (Proteintech 66009-1-Ig). Following primary antibody incubation, membranes were washed thrice with TBST 10 min before and after incubation with secondary-HRP conjugated antibody in 5% milk-TBST for 1 hour at room temperature. The secondary antibodies used were: Anti-Mouse IgG HRP Conjugate (Promega W4021B) and Anti-Rabbit IgG HRP Conjugate (Promega W4011). For the p62 oligomerization assay, the total protein levels were assessed using Ponceau staining (Thermo Fisher Scientific) of PVDF membrane as per recommendation by manufacturer's guidelines.
(§4) Imaging was acquired using SuperSignal™ West Pico PLUS Chemiluminescent Substrate (Thermo Fisher Scientific) with iBright Invitrogen FL100 imaging system. Band signal intensity, reflective of protein concentrations, were quantified using Invitrogen™ iBright™ Analysis and Image J software.
HeLa cells were treated with compounds for 24 hours to evaluate the effect of these compounds on p62 oligomerisation activity. The resulting changes in levels of p62 oligomers were assessed by Western blotting, as described in experimental procedures. The fold change of p62 oligomer levels induced by compound treatment relative to vehicle control (DMSO) was determined and summarized in Table 8. Specifically, FIGS. 2A-C show Western blot images and their corresponding quantification showing the levels of high molecular weight (100-200 kDa) p62 oligomers by 24 hours compound treatments at listed concentrations, relative to vehicle control (DMSO) in HeLa cells. Protein loading consistencies was assessed by Ponceau staining (not shown).

[2] = target: Recombinant p62 protein (Homo sapiens, UniProt Q13501); assay: Surface plasmon resonance (SPR) compound binding to p62; conditions: 15° C
Procedure: Recombinant p62 protein was buffer exchanged into Biacore SPR running buffer (Cytiva 100671) using the Slide-A-Lyzer Mini Dialysis system 7K MWCO (Thermo Fisher Scientific, Cat no. 69560). The final protein concentration was determined using the Nanodrop One spectrophotometer (Thermo Fisher Scientific, cat no. ND-ONE-W), with calibration for the dialysis buffer.
The prepared protein was diluted in sodium acetate buffer (NaAc, pH 5.5, Cytiva) to concentrations ranging from approximately 0.25-40 μg/mL. Post-immobilization, the protein required approximately 16 hours of equilibration in running buffer supplemented with 1% DMSO at 15° C. to ensure adequate surface equilibration and protein reorganization.
All SPR experiments were conducted at a constant temperature of 15° C. The SPR chip surface was activated using EDC/NHS for a contact time of 6-10 min at a flow rate of 10 μL/min. This was followed by protein immobilization for 2100 seconds and ethanolamine capping for 420 seconds, both at the same flow rate. Immediately after immobilization, the NH2-REEE peptide was analyzed in Single Cycle Kinetics mode (SCK) to verify surface activity, ensuring it binds the sample with the published affinity (˜20 μM by SPR).
For general compound binding studies, experiments were performed at 15° C. using a running buffer composed of 10 mM HEPES, 150 mM NaCl, 1 mM DTT, 0.05% Tween 20, and 1% DMSO at pH 7.4. The test compound was initially prepared at a 20 mM concentration in DMSO and subsequently titrated in 2-fold dilutions. For each assay, 2 μL of the compound was mixed with 198 μL of the running buffer, and the mixture was thoroughly pipetted approximately 15 times for homogenization.
A series of blank injections (0 μM concentration) were included for double referencing, with at least 8 or 16 per plate depending on the format. Typical injection parameters were 120 seconds for association and 180 seconds for dissociation at a flow rate of […]. A four-point solvent correction was prepared with DMSO concentrations ranging from 2% to 0.5% in the buffer. Post each compound injection, the system's needles were washed with 50% DMSO.
Analysis of the SPR data was conducted using the Cytiva Evaluation software. The binding levels at the late time-point of each interaction were corrected for reference, then normalized to percentage bound values to account for variations in immobilization levels, protein molecular weight, and compound molecular weight.
Compound binding studies were carried out according to experimental procedures above and SPR % occupancy was determined and summarized in Table 7.

[3] = tested on: LC3 protein; assay: LC3 lipidation (LC3-II/LC3-I) assay by Western blot in HeLa cells; type: cell-based; parameters: key: ++: >2-fold change in LC3-II/LC3-I relative to DMSO control; +: <2-fold change in LC3-II/LC3-I relative to DMSO control; −: no change in LC3-II/LC3-I relative to DMSO control; conditions: 24 hours treatment, relative to vehicle control (DMSO)
Procedure: as §1, §2, §3, §4
HeLa cells were treated with compounds for 24 hours to evaluate the effect of these compounds on LC3-II/LC3-I levels, a measure of autophagy activation. The changes in levels of LC3-I, LC3-II and […] (loading control) were assessed by Western blotting, as described in experimental procedures. The fold increase of LC3-II/LC3-I levels induced by compound treatment relative to vehicle control (DMSO) was determined and summarized in Table 9. Specifically, FIGS. 3A-C show Western blot images and their corresponding quantification showing the lipidation levels of LC3 protein (LC3-II/LC3-I) by 24 hours compound treatments at listed concentrations, relative to vehicle control (DMSO) in HeLa cells.

T1 sequence (Q13501 whole entry): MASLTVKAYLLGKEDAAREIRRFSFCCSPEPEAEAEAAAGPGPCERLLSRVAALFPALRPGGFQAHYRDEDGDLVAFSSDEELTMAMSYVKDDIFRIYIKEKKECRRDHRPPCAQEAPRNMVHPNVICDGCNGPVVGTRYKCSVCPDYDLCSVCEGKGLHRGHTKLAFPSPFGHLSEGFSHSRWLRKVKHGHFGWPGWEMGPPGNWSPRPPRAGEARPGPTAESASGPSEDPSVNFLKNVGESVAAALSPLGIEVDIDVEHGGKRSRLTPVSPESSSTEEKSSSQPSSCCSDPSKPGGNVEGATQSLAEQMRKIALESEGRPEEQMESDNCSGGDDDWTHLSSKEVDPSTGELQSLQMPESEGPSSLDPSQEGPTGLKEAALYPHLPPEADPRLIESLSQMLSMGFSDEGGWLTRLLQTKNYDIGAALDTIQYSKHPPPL
Recombinant p62 protein, sequence (Q13501 whole entry, species assumed): as the sequence (Q13501 whole entry) above

Compound	receptor occupancy at 100 µM [2]	p62 oligomerization (fold change of p62 oligomer levels) [1]	LC3 lipidation (fold increase of LC3-II/LC3-I levels) [3]
OCCNCc1cccc2c1ccn2Cc1ccc(F)cc1 [Compound 10]	> 70%	++ (>2-fold change relative to DMSO control)	+ (<2-fold change in LC3-II/LC3-I relative to DMSO control)
OCCNCc1cccc2c1ccn2Cc1c[nH]cn1 [Compound 21, 2-(((1-((1H-imidazol-4-yl)methyl)-1H-indol-4-yl)methyl)amino)ethan-1-ol]	30 to 70%	+ (<2-fold change relative to DMSO control)	−
OCCNCc1cccc2c1ccn2Cc1ccc(Cl)cc1 [Compound 11]	> 70%	++ (>2-fold change relative to DMSO control)	++ (>2-fold change in LC3-II/LC3-I relative to DMSO control)
OCCNCc1cccc2c1ccn2-c1ccccc1 [Compound 9, 2-(((1-phenyl-1H-indol-4-yl)methyl)amino)ethan-1-ol]	> 70%	++ (>2-fold change relative to DMSO control)	+ (<2-fold change in LC3-II/LC3-I relative to DMSO control)

More lines, main results first:

receptor occupancy at 100 µM [2]	Compound	p62 oligomerization (fold change of p62 oligomer levels) [1]	LC3 lipidation (fold increase of LC3-II/LC3-I levels) [3]
> 70%	OCCNCc1ccc(Cl)c2c1ccn2Cc1ccccc1 [Compound 35]	++ (>2-fold change relative to DMSO control)	++ (>2-fold change in LC3-II/LC3-I relative to DMSO control)
30 to 70%	OCCNCc1cccc2c1ccn2CCC1CCNCC1 [Compound 26]	++ (>2-fold change relative to DMSO control)	+ (<2-fold change in LC3-II/LC3-I relative to DMSO control)
30 to 70%	Cc1cn(Cc2ccc(F)cc2)c2cccc(CNCCO)c12 [Compound 48]	++ (>2-fold change relative to DMSO control)	++ (>2-fold change in LC3-II/LC3-I relative to DMSO control)
> 70%	OCCNCc1cc(F)cc2c1ccn2Cc1ccccc1 [Compound 31]	++ (>2-fold change relative to DMSO control)	+ (<2-fold change in LC3-II/LC3-I relative to DMSO control)
30 to 70%	Cc1cn(Cc2ccccc2)c2cccc(CNCCO)c12 [Compound 37, 2-(((1-benzyl-3-methyl-1H-indol-4-yl)methyl)amino)ethan-1-ol]	++ (>2-fold change relative to DMSO control)	+ (<2-fold change in LC3-II/LC3-I relative to DMSO control)
> 70%	CC(C)(C)OC(=O)N1Cc2ccc(Cn3ccc4c(CNCCO)cccc43)cc2C1 [Compound 27]	++ (>2-fold change relative to DMSO control)	+ (<2-fold change in LC3-II/LC3-I relative to DMSO control)
30 to 70%	Cc1cn(CC2CCOCC2)c2cccc(CNCCO)c12 [Compound 49]	+ (<2-fold change relative to DMSO control)	−
